{"source": "patent US4703061A", "about": "“Gamma-aminobutyric acid derivatives, process for production thereof, and use thereof as medicaments” (priority 1984, dated 1987)", "key": {"[1]": {"system": "locomotor activity of mice", "assay": "Effects on locomotor activity, wheel cage method", "type": "in vivo, ddY-strain male mice", "procedure": "(§1) In Tests 1 to 4 given below, ddY-strain male mice (body weight 20-25 g) were used, and the experiments were carried out in a semi-soundproof, constant-temperature room kept at a temperature of 23±1° C. and a humidity of 55±2%. The mice were allowed to take feed and water freely.\nTest 1: Effects on locomotor activity\nThe effects of the test compound on the locomotor activities of the mice were examined by using wheel cages (made by Kishimoto Ika). […] The mice were used in groups each consisting of 8 mice. The test compound was intraperitoneally administered to the mice in the doses indicated, and immediately then, the mice were put into the cages. The locomotor activities (the number of revolutions) were measured for 90 minutes at 15 minute intervals, and compared with that of the control group."}, "in vivo": {"assay": "in vivo", "settings": "mouse, in vivo, ip", "procedure": "(§2) Calcium 4-(3,5-dihydroxy-3-methylpentylamide) butyrate was intraperitoneally administered in doses of 500 mg/kg and 1,000 mg/kg respectively to eight ddY-strain male mice (body weight 20 to 25 g)."}, "ddY-strain male mice": {"system": "ddY-strain male mice", "assay": "Toxicity test, intraperitoneal (LD50)", "settings": "500 mg/kg and 1,000 mg/kg i.p.; result in words", "procedure": "as §2"}, "[2]": {"system": "motor activity induced by atropine", "assay": "Antagonistic effect against atropine (automex method)", "type": "in vivo, ddY-strain male mice", "settings": "600 mg/kg i.p. + atropine 30 mg/kg s.c.", "procedure": "as §1\nTest 4: Antagonistic effect against atropine (automex method)\nEach of the test compounds was intraperitoneally administered to mice divided into 6-membered groups, and immediately then, atropine was subcutaneously injected into the mice in a dose of 30 mg/kg. The effect of each test compound on the enhancement of motor activity induced by atropine was examined in accordance with the automex method."}, "[3]": {"system": "planar locomotor activity of mice", "assay": "Effects on planar locomotor activity, automex method", "type": "in vivo, ddY-strain male mice", "procedure": "as §1\nThe effects of the test compound on planar locomotor activity of the mice were examined by using an automex activity meter (made by Columbus Company). […] The test compound was intraperitoneally administered to the mice in doses indicated. Immediately then, five mice were put into each of transparent plastic cages (27×17×17 cm), and placed on the automex activity meter. The motor activity for 30 minutes was measured at 5 minutes intervals, and compared with that of the control group."}, "[4]": {"system": "cycloheximide-induced amnesia model", "assay": "Effects on CXM-induced amnesia (step-down retention test)", "type": "in vivo, ddY-strain male mice", "settings": "for Escape learning latency (mean ± S.E.) / Step-down latency (mean ± S.E.): retention test 24 hours", "procedure": "The test animals used were ddY-strain male mice (body weight 30-35 g). The experiment was carried out indoors at about 20° C., and the mice were allowed to take feed and water freely. 2. Effects on memorized behaviors\nA device comprised of a floor grid surrounded on four sides by acrylic glass walls each having a lateral dimension of 21 cm and a wooden platform, 4×4×4 cm in size, fixed centrally to the floor grid was placed in a wooden semi-soundproof box having a size of 21×21×40 cm with a 15W electric bulb suspended from its ceiling.\nThe floor grid consisted of stainless steel rods, 3 mm in diameter, arranged at intervals of 8 mm. An intermittent electric shock (1 Hz, 0.5 sec., 60 V DC) was applied to the grid by an electric impulse apparatus and an isolator.\nA mouse was placed in a predetermined direction on the platform. Immediately after the mouse stepped down onto the floor grid (when the mouse's four limbs left the platform), an electric shock was applied to the floor grid, and the intermittent application of the electric shock was continued until the mouse climbed up the platform to escape from the electric shock. The time which elapsed until the mouse stepped down from the platform (SDL, step down latency) and the time which elapsed until the mouse escaped to the platform from the electric shock (ELL, escape learning latency) were measured.\nBy the same procedure as in the training test, a mouse was placed on the platform, and its step down latency (SDL) was measured. The cut-off time was 300 seconds.\nAfter the mouse stepped down, or the cut-off time elapsed, the mouse was placed on the floor grid at a corner of the device with its head directed in a direction opposite to the platform. An electric shock was applied to the mouse and its escape learning latency (ELL) was measured.\nMice divided into groups each consisting of not less than 20 mice were subjected to the training test, and immediately then subcutaneously injected with CXM (150 mg/kg). Twenty-four hours later, the mice was subjected to the retention test.\nImmediately after administration of CXM or application of ECS, a 0.9% normal saline solution of each of the test compounds was intraperitoneally administered to the mice. Separately, a 5% gum arabic solution of CXM was administered to the mice in a control group."}, "[5]": {"settings": "500 mg/kg i.p., CXM 150 mg/kg s.c."}, "[6]": {"settings": "1000 mg/kg i.p., CXM 150 mg/kg s.c."}}, "note": "Counter-ions that a name gives are not always drawn.", "data": [{"smiles": "CC(O)(CCO)CC(=O)NCCCC(=O)O", "note": "(centres unmarked) [MV-GABA-Ca salt, calcium 4-(3,5-dihydroxy-3-methylpentylamide) butyrate]", "values": [{"measurement": "Motor activity (total number of revolutions per mouse)", "setting": "[1]; 250 mg/kg i.p., 15 minutes", "result": 201, "unit": "revolutions per mouse"}, {"measurement": "Motor activity (total number of revolutions per mouse)", "setting": "[1]; 250 mg/kg i.p., 30 minutes", "result": 406, "unit": "revolutions per mouse"}, {"measurement": "Motor activity (total number of revolutions per mouse)", "setting": "[1]; 250 mg/kg i.p., 45 minutes", "result": 560, "unit": "revolutions per mouse"}, {"measurement": "Motor activity (total number of revolutions per mouse)", "setting": "[1]; 250 mg/kg i.p., 60 minutes", "result": 727, "unit": "revolutions per mouse"}, {"measurement": "Motor activity (total number of revolutions per mouse)", "setting": "[1]; 250 mg/kg i.p., 75 minutes", "result": 865, "unit": "revolutions per mouse"}, {"measurement": "Motor activity (total number of revolutions per mouse)", "setting": "[1]; 250 mg/kg i.p., 90 minutes", "result": 916, "unit": "revolutions per mouse"}, {"measurement": "Motor activity (total number of revolutions per mouse)", "setting": "[1]; 500 mg/kg i.p., 15 minutes", "result": 132, "unit": "revolutions per mouse"}, {"measurement": "Motor activity (total number of revolutions per mouse)", "setting": "[1]; 500 mg/kg i.p., 30 minutes", "result": 289, "unit": "revolutions per mouse"}, {"measurement": "Motor activity (total number of revolutions per mouse)", "setting": "[1]; 500 mg/kg i.p., 45 minutes", "result": 448, "unit": "revolutions per mouse"}, {"measurement": "Motor activity (total number of revolutions per mouse)", "setting": "[1]; 500 mg/kg i.p., 60 minutes", "result": 615, "unit": "revolutions per mouse"}, {"measurement": "Motor activity (total number of revolutions per mouse)", "setting": "[1]; 500 mg/kg i.p., 75 minutes", "result": 826, "unit": "revolutions per mouse"}, {"measurement": "Motor activity (total number of revolutions per mouse)", "setting": "[1]; 500 mg/kg i.p., 90 minutes", "result": 1034, "unit": "revolutions per mouse"}, {"measurement": "Motor activity (total number of revolutions per mouse)", "setting": "[1]; 1000 mg/kg i.p., 15 minutes", "result": 76, "unit": "revolutions per mouse"}, {"measurement": "Motor activity (total number of revolutions per mouse)", "setting": "[1]; 1000 mg/kg i.p., 30 minutes", "result": 165, "unit": "revolutions per mouse"}, {"measurement": "Motor activity (total number of revolutions per mouse)", "setting": "[1]; 1000 mg/kg i.p., 45 minutes", "result": 265, "unit": "revolutions per mouse"}, {"measurement": "Motor activity (total number of revolutions per mouse)", "setting": "[1]; 1000 mg/kg i.p., 60 minutes", "result": 428, "unit": "revolutions per mouse"}, {"measurement": "Motor activity (total number of revolutions per mouse)", "setting": "[1]; 1000 mg/kg i.p., 75 minutes", "result": 639, "unit": "revolutions per mouse"}, {"measurement": "Motor activity (total number of revolutions per mouse)", "setting": "[1]; 1000 mg/kg i.p., 90 minutes", "result": 837, "unit": "revolutions per mouse"}, {"measurement": "LD50", "setting": "in vivo", "result": "> 2000", "unit": "mg/kg"}, {"measurement": "death", "setting": "ddY-strain male mice", "result": "no case of death"}, {"measurement": "Motor activity (total number of counts)", "setting": "[2]; 5 minutes", "result": 8, "unit": "counts"}, {"measurement": "Motor activity (total number of counts)", "setting": "[2]; 10 minutes", "result": 12, "unit": "counts"}, {"measurement": "Motor activity (total number of counts)", "setting": "[2]; 15 minutes", "result": 19, "unit": "counts"}, {"measurement": "Motor activity (total number of counts)", "setting": "[2]; 20 minutes", "result": 27, "unit": "counts"}, {"measurement": "Motor activity (total number of counts)", "setting": "[2]; 25 minutes", "result": 47, "unit": "counts"}, {"measurement": "Motor activity (total number of counts)", "setting": "[2]; 30 minutes", "result": 92, "unit": "counts"}, {"measurement": "Motor activity (total number of counts)", "setting": "[3]; 500 mg/kg i.p., 5 minutes", "result": 172, "unit": "counts"}, {"measurement": "Motor activity (total number of counts)", "setting": "[3]; 500 mg/kg i.p., 10 minutes", "result": 241, "unit": "counts"}, {"measurement": "Motor activity (total number of counts)", "setting": "[3]; 500 mg/kg i.p., 15 minutes", "result": 307, "unit": "counts"}, {"measurement": "Motor activity (total number of counts)", "setting": "[3]; 500 mg/kg i.p., 20 minutes", "result": 405, "unit": "counts"}, {"measurement": "Motor activity (total number of counts)", "setting": "[3]; 500 mg/kg i.p., 25 minutes", "result": 505, "unit": "counts"}, {"measurement": "Motor activity (total number of counts)", "setting": "[3]; 500 mg/kg i.p., 30 minutes", "result": 558, "unit": "counts"}, {"measurement": "Motor activity (total number of counts)", "setting": "[3]; 1000 mg/kg i.p., 5 minutes", "result": 91, "unit": "counts"}, {"measurement": "Motor activity (total number of counts)", "setting": "[3]; 1000 mg/kg i.p., 10 minutes", "result": 128, "unit": "counts"}, {"measurement": "Motor activity (total number of counts)", "setting": "[3]; 1000 mg/kg i.p., 15 minutes", "result": 156, "unit": "counts"}, {"measurement": "Motor activity (total number of counts)", "setting": "[3]; 1000 mg/kg i.p., 20 minutes", "result": 177, "unit": "counts"}, {"measurement": "Motor activity (total number of counts)", "setting": "[3]; 1000 mg/kg i.p., 25 minutes", "result": 189, "unit": "counts"}, {"measurement": "Motor activity (total number of counts)", "setting": "[3]; 1000 mg/kg i.p., 30 minutes", "result": 203, "unit": "counts"}, {"measurement": "shortening of SDL induced by CXM", "setting": "[4]; 500 mg/kg and 1,000 mg/kg, result in words", "result": "significantly improved the shortening of SDL"}, {"measurement": "Escape learning latency (mean ± S.E.)", "setting": "[4]; [5]", "result": "10.5 ± 0.6", "unit": "s"}, {"measurement": "Step-down latency (mean ± S.E.)", "setting": "[4]; [5]", "result": "120.5 ± 10.6", "unit": "s"}, {"measurement": "Escape learning latency (mean ± S.E.)", "setting": "[4]; [6]", "result": "7.5 ± 0.6", "unit": "s"}, {"measurement": "Step-down latency (mean ± S.E.)", "setting": "[4]; [6]", "result": "175.2 ± 16.1", "unit": "s"}, {"measurement": "Escape learning latency (mean ± S.E.)", "setting": "[4]; 1000 mg/kg i.p., without CXM", "result": "5.2 ± 0.6", "unit": "s"}, {"measurement": "Step-down latency (mean ± S.E.)", "setting": "[4]; 1000 mg/kg i.p., without CXM", "result": "260.5 ± 14.0", "unit": "s"}, {"measurement": "prolongation of ELL induced by CXM", "setting": "[4]; 1,000 mg/kg, result in words", "result": "significantly improved the prolongation of ELL"}, {"measurement": "memory activating action", "setting": "[4]; without CXM, vs control group, result in words", "result": "did not show memory activating action"}]}]}
